This is an account of results in patent US20260115162A1, “COMPOSITION OR ASSOCIATION OF COMPOUNDS PREFERABLY FOR USE IN THE TREATMENT OF NERVOUS DISEASES IN PARTICULAR NEURODEGENERATIVE DISEASES, METHOD FOR THE PREPARATION OF SUCH COMPOSITION OR ASSOCIATION OF COMPOUNDS AND USES THEREOF” (PHARMACEUTICA SAN MARCO S.R.L., priority 2022, published 2026).

What all share (assay type): in vivo
Assay [1] relates to intact mice. In words: Behavioral tests on intact animals (open field, freezing). As for the experimental part: The trials were performed at the Department of Clinical and Experimental Medicine of the University of Foggia according to the following rationale. • 1. In the present mouse model of beta-amyloid toxicity, using validated tests in mice, we evaluated the behaviors: • a. antidepressant: Tail Suspension Test (TST); Forced Swimming Test (FST); Splash Test (ST) with latency time (sec) and self-care (sec) measurement. • b. antianxiety: Open Field Test with measurement of distance traveled (m), time spent in the wall (sec), time spent in the center (sec), center entries (n); Freezing Test (sec). • c. on memory, learning, coordination of motor skills, fear conditioning: Rotarod Test with measure of Latency to Fall, repeated after training to evaluate motor learning. • 2. We tested the protective effects with the following procedure: • a. individually: βCP, FE, βBA, DHA and HA4; • b. in association with pairs: βCP+HA4, FE+HA4, βBA+HA4, FE+βCP, βBA+FE, βBA+βCP. • c. in association, all four together: βCP+FE+βBA+HA4 • d. versus control (SHAM), • e. using the mouse model of an Aβ-induced depressive phenotype. • 3. These behavioral tests were integrated with serotonin, dopamine, noradrenaline and their metabolites prefrontal cortex and hippocampus measurement. • 4. Furthermore, we evaluated the cortical and hippocampal glutamate (GLU) levels in mice treated with AP and subsequently we tested the ability of βCP, FE, βBA and HA4, to modulate this neurochemical parameter.
βCP, FE e βBA (Merck, Cayman Chemical Company) was dissolved in sunflower oil, this vehicle was chosen in order to maintain a better tasting and higher density of the final solution thus reducing reflux through the digestive tract.
(§1) Ten μl of the solution (or vehicle alone) were administered sublingually to mice. Brain βCP, FE e βBA were quantified in a separate subset of mice at 5, 15 and 30 min after their administration.
Open Field Test. Mice were placed in an open field arena and allowed to explore for 30 min [Lama A et al. 2021]. After each trial, the arena floor was cleaned with 70% ethanol to avoid inter-assay bias. The movements of mice were video recorded and analyzed by ANY-maze tracking software (Ugo Basile-Varese, Gemonio, Italy). Locomotion was evaluated through total crossing measurements.

The test system of assay [2] is mice treated with Aβ icv. In words: Splash test in SHAM mice and mice treated with Aβ icv (FIG. 4). The settings on record: after 7 days, HA4 200 μg, βCP 50 μg, βBA 100 μg, FE 50 μg sublingually. How it is done:
(§2) The Aβ1-42, obtained from Tocris (Bristol, UK), was dissolved in sterile double-distilled pyrogenic-free water, as vehicle, to obtain a final concentration 4 μM [Colaianna M et al. 2010]. Mice were anesthetized with a solution (0.85 in ml/kg, i.p.), containing ketamine (Sigma Aldrich, Milan, Italy, 100 mg/10 ml), xylazine (Sigma Aldrich, Milan, Italy, 100 mg/10 ml) and acepromazine (prequillant, ATI Azienda Terapeutica Veterinaria Srl, 10 mg/10 ml) dissolved in saline solution. […] At the time of dissection, the correct needle track was assessed. […]
as §1
All behavioral experiments were conducted at 5 or 30 min after sublingual administrations of βBA or vehicle in mice treated with SHAM or AP. Based on the observed behavioral results, neurochemical and biochemical quantifications were performed 30 min after administration of βCP, FE, and βBA or vehicle in SHAM- or Aβ-treated mice.
Splash test. […] The test was videotaped and later an observer, blind to the trial, scored for latency to the first grooming event and duration of self-care behavior during the period of the test (5 min).

Assay [3] deals with serotonin (5-HT). In words: Serotonin (5-HT) levels in mice treated with Aβ icv (FIG. 5a). As for the experimental part: as §2
(§3) All behavioral experiments were conducted at 5 or 30 min after sublingual administrations of βBA or vehicle in mice treated with SHAM or AP. Based on the observed behavioral results, neurochemical and biochemical quantifications were performed 30 min after administration of βCP, FE, and βBA or vehicle in SHAM- or Aβ-treated mice. […]
(§4) 5-HT, noradrenaline (NA), and KYN levels were measured in the PFC and HIPP of mice by HPLC coupled with an electrochemical detector (Ultimate ECD, Thermo Scientific Dionex, Milan, Italy) as already reported [Francavilla M et al. 2012, Morgese M G et al. 2016]. […] GLU concentrations were determined by HPLC coupled with fluorescence detection (emission length 460 nm; excitation length 340 nm), as previously published [Francavilla M et al. 2012]. […]

Assay [4] concerns noradrenaline (NA). In words: Norepinephrine (NA) levels in mice treated with Aβ icv (FIG. 5b). The settings on record: PFC and HIPP. How it is done:
as §2, §3, §4

Turning to `C[C@H]1[C@H](C)CC[C@]2(C)CC[C@]3(C)C(=CC[C@@H]4[C@@]5(C)CC[C@@H](O)[C@](C)(C(=O)O)[C@@H]5CC[C@]43C)[C@H]12` [βBA, β-boswellic acid], in assay [1] (intact mice, preliminary experiments (unpublished observations)), the “lowest dose showing antidepressant effects” value is 5 mg/kg. Moreover, the “effect in behavioral tests, individually” value in assay [1] (mouse, in vivo) was “antidepressant and anxiolytic effect”. Besides, in assay [2], the “Splash test latency time (antidepressant effect)” value is recorded as “antidepressant effect”. In addition, the “Serotonin (5-HT) levels” value in assay [3] is “progressively greater serotonergic activity”. For the same molecule, in assay [4], the “Norepinephrine (NA) levels” value is “removes the reduction of NA induced by Aβ treatment and increases its expression in both PFC and HIPP compared with the control group”.
